Experiments:
A549 (lung cancer) = experiment: MTT assay, A549 cells; type: cell-based, human
In short: (§1)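 Test compounds are added to plated cells (1 × 10^4 per well) for 72 h. Cell viability is calculated as the percentage of MTT reduction compared with cells given medium alone.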

[1] = system: MDA-MB-231 (breast cancer); experiment: MTT assay, MDA-MB-231 cells; type: cell-based, human
In short: (§2)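 1 × 10^4 cells/well; 72 h compound exposure; MTT absorbance; % viability vs medium-only control. Media: HCT116 MEM, PC3 RPMI, MDA-MB-231/HaCaT DMEM high glucose, all 10% FBS.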

[2] = system: HaCaT (immortalized human keratinocytes); experiment: MTT assay, HaCaT normal cells; type: cell-based; conditions: Homo sapiens, HaCaT; MTT, 72 h, normal cells; read-out: IC50 HaCaT (Table 3)
In short: as §2

[3] = system: MiaPaCa-2 (pancreas cancer); experiment: MTT assay, MiaPaCa-2 cells; type: cell-based, human
In short: as §1

PC3 (prostate cancer) = experiment: MTT assay, PC3 cells; type: cell-based, human
In short: as §2

cancer cell lines = experiment: MTT assay, summary over several cell lines; type: cell-based, human; conditions: Homo sapiens; range over two cell lines not given; read-out: IC50 range against two tested cell lines
Protocol: The human cell lines, such as A549 (lung cancer), MDA-MB-231 (breast cancer), MiaPaca-2 (pancreatic cancer), PC3 (metastatic prostate cancer), HCT-116 (colon carcinoma), and HaCaT (immortalized keratinocytes), were sourced from the American Type Culture Collection (ATCC) in Rockville, USA. Culturing conditions varied as follows: HCT116 cells were cultured in MEM (ThermoSci, Waltham, MA, USA), A549, MDA-MB-231, MiaPaca, HaCaT cells in DMEM High Glucose and PC3 cells were cultured in RPMI (Biowest SAS, Nuaillé, France). The growth medium consisted of 10% fetal bovine serum (FBS, Sigma-Aldrich, St. Louis, MO, USA), 20 mM HEPES (Biowest, Nuaillé, France), and antibiotics (100 U/mL of penicillin and 100 μg/mL of streptomycin) from Gibco, Grand Island, NY, USA. […] These compounds were added to 96-well plates containing study cells (1 × 10^4 cells per well) and incubated for 72 h. […] Cell absorbance results were incorporated into the formula for calculating the relative MTT level (%), enabling the assessment of cell viability following exposure to the test compounds. The cell viability percentage represents the MTT reduction in cells treated with the test compounds compared to the control sample, where only the medium was added to the cells.

[4] = system: standard bacterial strains; experiment: MIC, summary over standard bacterial strains; type: cell-based; conditions: Staphylococcus aureus, ATCC 29213, 25923, and 6538; S. aureus strains other than NCTC 4163; read-out: MIC against the other three strains of S. aureus
Source text: To evaluate the antibacterial effectiveness of chloroquinobenzothiazine derivatives, various bacterial strains from international microbe collections such as the American Type Culture Collection (ATCC) and the National Collection of Type Culture (NCTC) were examined, alongside a panel of clinical rods. This included two Gram-negative organisms, E. coli ATCC 25922 and P. aeruginosa ATCC 15442, and a series of six Gram-positive strains: S. aureus NCTC 4163; S. aureus ATCC 29213, 25923, and 6538; and S. epidermidis ATCC 12228 and 35984. The antimicrobial activity was examined using the Minimal Inhibitory Concentration (MIC) method, following standard CLSI procedures with slight adjustments. The MIC was determined using the two-fold serial broth microdilution method in 96-well microtitration plates containing Mueller-Hinton II broth medium (Becton Dickinson, Franklin Lakes, NJ, USA). The final inoculum for all tested bacteria was adjusted to […] (colony-forming units per milliliter). The stock solution of the tested compounds was prepared in dimethyl sulfoxide (DMSO) and diluted to a maximum of 1% solvent content with a sterile medium.

HCT116 cells [5] = experiment: Annexin V-FITC/PI apoptosis flow cytometry, HCT116; type: cell-based, human
HCT116 cells [6] = experiment: Cell cycle analysis by flow cytometry, HCT116; type: cell-based, human; conditions: IC50, 24 h, compared to the control
In short: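 Cells seeded at 1 × 10^5/well, adhered 24 h; attached and detached cells pooled, fixed overnight in 70% cold ethanol. Staining with RNase and propidium iodide (30 min, 37 °C, dark) preceded flow cytometry of sub-G1, G0/G1, S and G2/M fractions, in quadruplicate.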

[7] = SI = IC50 for normal cell line (HaCaT)/IC50 cancer cell line
[8] = representative dot plot, Figure 4C, IC50, 72 h

In the case of `CN1CCCCC1CCN1c2cc(Cl)ccc2Sc2cc3ccccc3nc21` (centres unmarked) [Compound 11, 8-Chloro-6-(2-(1-methylpiperidin-2-yl)ethyl)-quino[3,2-b]benzo[1,4]thiazine], the IC50 (A549 (lung cancer); Homo sapiens, A549, MTT, 72 h, mean SD, read-out: IC50 A549) is reported as 16 ± 4.2 µM, the “SI A549” value (A549 (lung cancer); [7]) is reported as 1 and the IC50 ([1]; Homo sapiens, MDA-MB-231, MTT, 72 h, MDA-MB231, read-out: IC50 MDA) is reported as 16.7 ± 1.1 µM. For the same molecule, the “SI MDA” value [1, 7] was 0.9, the IC50 [2] was 12.7 ± 1.9 µM and the IC50 ([3]; Homo sapiens, MIA PaCa-2, MTT, 72 h, read-out: IC50 MiaPaCa-2) was 24.3 ± 3.5 µM. For the same molecule, the “SI MiaPaCa-2” value [3, 7] was 0.5, the IC50 (PC3 (prostate cancer); Homo sapiens, PC-3, MTT, 72 h, read-out: IC50 PC3) was 16.7 ± 1.8 µM and the “SI PC3” value (PC3 (prostate cancer); [7]) was 0.7. For the same molecule, the IC50 (cancer cell lines) was 16.1 to 16.7 µM, the MIC [4] was greater than 128 µg/mL and the “cells in late apoptosis/necrosis, HCT116” value (HCT116 cells [5]; compound at IC50, 72 h) was 15.64%. For the same molecule, the “HCT-116: Alive” value (HCT116 cells [5]; [8]) was 80.61%, the “HCT-116: Early Apoptotic” value (HCT116 cells [5]; [8]) was 4.12% and the “HCT-116: Necrotic” value (HCT116 cells [5]; [8]) was 9.25%. The “HCT-116: Necrotic/Late Apoptotic” value (HCT116 cells [5]; [8]) was 6.03% and the “increase in the cell amount at the sub-G1 phase, HCT116” value (HCT116 cells [6]) was 2 fold.

— paper PMC11050599, “Novel Tetracyclic Azaphenothiazines with the Quinoline Ring as New Anticancer and Antibacterial Derivatives of Chlorpromazine” (International Journal of Molecular Sciences, 2024)
